{"source": "PubChem BioAssay AID2060912", "about": "(Molecular Pharmacology Branch, DTP, NCI, 2025)", "system": "HUVEC/MSC spheroids viability", "experiment": "Human HUVEC/MSC cell line growth inhibition [KRAS2];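 for viability, T/C: percent of DMSO vehicle control luminescence so 100% = untreated viability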", "details": "for pIC50: curve of first compound; for viability, T/C: stronger effect = lower value", "outline": "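Concentration ranges start near each agent's clinical Cmax, or at 10 microM if none is established, and fall by half-log increments. These ranges are tested as single agents and combinations on endothelial/mesenchymal stem cell spheroids lacking tumour cells.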", "note": "pIC50: −log10 of the molar value."}
{"compound": "CC(=O)OC12COC1CC(O)C1(C)C(=O)C(O)C3=C(C)C(OC(=O)C(O)C(NC(=O)OC(C)(C)C)c4ccccc4)CC(O)(C(OC(=O)c4ccccc4)C21)C3(C)C", "note": "(centres undefined) + COc1cc2nc(C)nc(NC(C)c3cc(N)cc(C(F)(F)F)c3)c2cc1OC1CCOC1", "values": [{"measurement": "pIC50", "setting": "second compound 0.0316 µM", "value": "> 8.02"}, {"measurement": "pIC50", "setting": "second compound 0.1 µM", "value": "< 5.52"}, {"measurement": "pIC50", "setting": "second compound 0.316 µM", "value": "> 8.02"}, {"measurement": "pIC50", "setting": "second compound 1 µM", "value": "> 8.02"}, {"measurement": "pIC50", "setting": "second compound 3.16 µM", "value": "< 5.52"}, {"measurement": "pIC50", "setting": "second compound 10 µM", "value": 5.56}, {"measurement": "viability, T/C", "setting": "second compound 0.0316 µM, first compound 0.00949 µM", "value": 47.1, "unit": "%"}, {"measurement": "viability, T/C", "setting": "second compound 0.0316 µM, first compound 0.03 µM", "value": 55.3, "unit": "%"}, {"measurement": "viability, T/C", "setting": "second compound 0.0316 µM, first compound 0.0949 µM", "value": 53, "unit": "%"}, {"measurement": "viability, T/C", "setting": "second compound 0.0316 µM, first compound 0.3 µM", "value": 36.7, "unit": "%"}, {"measurement": "viability, T/C", "setting": "second compound 0.0316 µM, first compound 0.949 µM", "value": 51.9, "unit": "%"}, {"measurement": "viability, T/C", "setting": "second compound 0.0316 µM, first compound 3 µM", "value": 60.4, "unit": "%"}, {"measurement": "viability, T/C", "setting": "second compound 0.1 µM, first compound 0.00949 µM", "value": 50.7, "unit": "%"}, {"measurement": "viability, T/C", "setting": "second compound 0.1 µM, first compound 0.03 µM", "value": 57, "unit": "%"}, {"measurement": "viability, T/C", "setting": "second compound 0.1 µM, first compound 0.0949 µM", "value": 54, "unit": "%"}, {"measurement": "viability, T/C", "setting": "second compound 0.1 µM, first compound 0.3 µM", "value": 44, "unit": "%"}, {"measurement": "viability, T/C", "setting": "second compound 0.1 µM, first compound 0.949 µM", "value": 54.7, "unit": "%"}, {"measurement": "viability, T/C", "setting": "second compound 0.1 µM, first compound 3 µM", "value": 61.5, "unit": "%"}, {"measurement": "viability, T/C", "setting": "second compound 0.316 µM, first compound 0.00949 µM", "value": 45.5, "unit": "%"}, {"measurement": "viability, T/C", "setting": "second compound 0.316 µM, first compound 0.03 µM", "value": 44.4, "unit": "%"}, {"measurement": "viability, T/C", "setting": "second compound 0.316 µM, first compound 0.0949 µM", "value": 44.8, "unit": "%"}, {"measurement": "viability, T/C", "setting": "second compound 0.316 µM, first compound 0.3 µM", "value": 49.3, "unit": "%"}, {"measurement": "viability, T/C", "setting": "second compound 0.316 µM, first compound 0.949 µM", "value": 47.5, "unit": "%"}, {"measurement": "viability, T/C", "setting": "second compound 0.316 µM, first compound 3 µM", "value": 57.1, "unit": "%"}, {"measurement": "viability, T/C", "setting": "second compound 1 µM, first compound 0.00949 µM", "value": 45.5, "unit": "%"}, {"measurement": "viability, T/C", "setting": "second compound 1 µM, first compound 0.03 µM", "value": 47.8, "unit": "%"}, {"measurement": "viability, T/C", "setting": "second compound 1 µM, first compound 0.0949 µM", "value": 37.2, "unit": "%"}, {"measurement": "viability, T/C", "setting": "second compound 1 µM, first compound 0.3 µM", "value": 57.1, "unit": "%"}, {"measurement": "viability, T/C", "setting": "second compound 1 µM, first compound 0.949 µM", "value": 63.6, "unit": "%"}, {"measurement": "viability, T/C", "setting": "second compound 1 µM, first compound 3 µM", "value": 47.9, "unit": "%"}, {"measurement": "viability, T/C", "setting": "second compound 3.16 µM, first compound 0.00949 µM", "value": 51.5, "unit": "%"}, {"measurement": "viability, T/C", "setting": "second compound 3.16 µM, first compound 0.03 µM", "value": 48.3, "unit": "%"}, {"measurement": "viability, T/C", "setting": "second compound 3.16 µM, first compound 0.0949 µM", "value": 58.6, "unit": "%"}, {"measurement": "viability, T/C", "setting": "second compound 3.16 µM, first compound 0.3 µM", "value": 48.1, "unit": "%"}, {"measurement": "viability, T/C", "setting": "second compound 3.16 µM, first compound 0.949 µM", "value": 58.3, "unit": "%"}, {"measurement": "viability, T/C", "setting": "second compound 3.16 µM, first compound 3 µM", "value": 50.6, "unit": "%"}, {"measurement": "viability, T/C", "setting": "second compound 10 µM, first compound 0.00949 µM", "value": 52.4, "unit": "%"}, {"measurement": "viability, T/C", "setting": "second compound 10 µM, first compound 0.03 µM", "value": 71.7, "unit": "%"}, {"measurement": "viability, T/C", "setting": "second compound 10 µM, first compound 0.0949 µM", "value": 59.2, "unit": "%"}, {"measurement": "viability, T/C", "setting": "second compound 10 µM, first compound 0.3 µM", "value": 58.1, "unit": "%"}, {"measurement": "viability, T/C", "setting": "second compound 10 µM, first compound 0.949 µM", "value": 59.8, "unit": "%"}, {"measurement": "viability, T/C", "setting": "second compound 10 µM, first compound 3 µM", "value": 49.3, "unit": "%"}]}
{"compound": "CN(C)C/C=C/C(=O)Nc1cc2c(Nc3ccc(F)c(Cl)c3)ncnc2cc1O[C@H]1CCOC1", "note": "+ COc1cc2nc(C)nc(NC(C)c3cc(N)cc(C(F)(F)F)c3)c2cc1OC1CCOC1", "values": [{"measurement": "pIC50", "setting": "second compound 0.0316 µM", "value": "< 7.00"}, {"measurement": "pIC50", "setting": "second compound 0.1 µM", "value": "< 7.00"}, {"measurement": "pIC50", "setting": "second compound 0.316 µM", "value": "< 7.00"}, {"measurement": "pIC50", "setting": "second compound 1 µM", "value": "< 7.00"}, {"measurement": "pIC50", "setting": "second compound 3.16 µM", "value": "< 7.00"}, {"measurement": "pIC50", "setting": "second compound 10 µM", "value": "< 7.00"}, {"measurement": "viability, T/C", "setting": "second compound 0.0316 µM, first compound 0.000316 µM", "value": 98.6, "unit": "%"}, {"measurement": "viability, T/C", "setting": "second compound 0.0316 µM, first compound 0.001 µM", "value": 110, "unit": "%"}, {"measurement": "viability, T/C", "setting": "second compound 0.0316 µM, first compound 0.00316 µM", "value": 104, "unit": "%"}, {"measurement": "viability, T/C", "setting": "second compound 0.0316 µM, first compound 0.01 µM", "value": 92.8, "unit": "%"}, {"measurement": "viability, T/C", "setting": "second compound 0.0316 µM, first compound 0.0316 µM", "value": 86.8, "unit": "%"}, {"measurement": "viability, T/C", "setting": "second compound 0.0316 µM, first compound 0.1 µM", "value": 107, "unit": "%"}, {"measurement": "viability, T/C", "setting": "second compound 0.1 µM, first compound 0.000316 µM", "value": 96.3, "unit": "%"}, {"measurement": "viability, T/C", "setting": "second compound 0.1 µM, first compound 0.001 µM", "value": 90.2, "unit": "%"}, {"measurement": "viability, T/C", "setting": "second compound 0.1 µM, first compound 0.00316 µM", "value": 96.8, "unit": "%"}, {"measurement": "viability, T/C", "setting": "second compound 0.1 µM, first compound 0.01 µM", "value": 73.7, "unit": "%"}, {"measurement": "viability, T/C", "setting": "second compound 0.1 µM, first compound 0.0316 µM", "value": 90.5, "unit": "%"}, {"measurement": "viability, T/C", "setting": "second compound 0.1 µM, first compound 0.1 µM", "value": 85.1, "unit": "%"}, {"measurement": "viability, T/C", "setting": "second compound 0.316 µM, first compound 0.000316 µM", "value": 132, "unit": "%"}, {"measurement": "viability, T/C", "setting": "second compound 0.316 µM, first compound 0.001 µM", "value": 102, "unit": "%"}, {"measurement": "viability, T/C", "setting": "second compound 0.316 µM, first compound 0.00316 µM", "value": 86.9, "unit": "%"}, {"measurement": "viability, T/C", "setting": "second compound 0.316 µM, first compound 0.01 µM", "value": 99.3, "unit": "%"}, {"measurement": "viability, T/C", "setting": "second compound 0.316 µM, first compound 0.0316 µM", "value": 74.8, "unit": "%"}, {"measurement": "viability, T/C", "setting": "second compound 0.316 µM, first compound 0.1 µM", "value": 97.3, "unit": "%"}, {"measurement": "viability, T/C", "setting": "second compound 1 µM, first compound 0.000316 µM", "value": 112, "unit": "%"}, {"measurement": "viability, T/C", "setting": "second compound 1 µM, first compound 0.001 µM", "value": 104, "unit": "%"}, {"measurement": "viability, T/C", "setting": "second compound 1 µM, first compound 0.00316 µM", "value": 97.6, "unit": "%"}, {"measurement": "viability, T/C", "setting": "second compound 1 µM, first compound 0.01 µM", "value": 84, "unit": "%"}, {"measurement": "viability, T/C", "setting": "second compound 1 µM, first compound 0.0316 µM", "value": 91.6, "unit": "%"}, {"measurement": "viability, T/C", "setting": "second compound 1 µM, first compound 0.1 µM", "value": 104, "unit": "%"}, {"measurement": "viability, T/C", "setting": "second compound 3.16 µM, first compound 0.000316 µM", "value": 91.6, "unit": "%"}, {"measurement": "viability, T/C", "setting": "second compound 3.16 µM, first compound 0.001 µM", "value": 99.1, "unit": "%"}, {"measurement": "viability, T/C", "setting": "second compound 3.16 µM, first compound 0.00316 µM", "value": 76.3, "unit": "%"}, {"measurement": "viability, T/C", "setting": "second compound 3.16 µM, first compound 0.01 µM", "value": 95.8, "unit": "%"}, {"measurement": "viability, T/C", "setting": "second compound 3.16 µM, first compound 0.0316 µM", "value": 75.3, "unit": "%"}, {"measurement": "viability, T/C", "setting": "second compound 3.16 µM, first compound 0.1 µM", "value": 83.7, "unit": "%"}, {"measurement": "viability, T/C", "setting": "second compound 10 µM, first compound 0.000316 µM", "value": 60.7, "unit": "%"}, {"measurement": "viability, T/C", "setting": "second compound 10 µM, first compound 0.001 µM", "value": 85.5, "unit": "%"}, {"measurement": "viability, T/C", "setting": "second compound 10 µM, first compound 0.00316 µM", "value": 80, "unit": "%"}, {"measurement": "viability, T/C", "setting": "second compound 10 µM, first compound 0.01 µM", "value": 59.6, "unit": "%"}, {"measurement": "viability, T/C", "setting": "second compound 10 µM, first compound 0.0316 µM", "value": 74.4, "unit": "%"}, {"measurement": "viability, T/C", "setting": "second compound 10 µM, first compound 0.1 µM", "value": 74.4, "unit": "%"}]}
